Active and inactive are the calls of the source. The rule behind the calls is not given here.
What was measured:
[1] = tested on: Trypanosoma brucei brucei; experiment: Antitrypanocidal activity against suramin-sensitive Trypanosoma brucei brucei Squib427 assessed as reduction in parasite growth after 72 hrs; assay type: functional, organism-based; conditions: Squib427, 72 h
[2] = tested on: Trypanosoma brucei rhodesiense; experiment: Antitrypanocidal activity against suramin-sensitive Trypanosoma brucei rhodesiense STIB-900 assessed as reduction in parasite growth after 72 hrs; assay type: functional, organism-based; conditions: STIB-900, 72 h
[3] = tested on: Human immunodeficiency virus 1; experiment: Antiviral activity against HIV1 infected in human TZM-bl cells assessed as viral inhibition pre-incubated for 30 mins prior to infection measured after 48 hrs by; assay type: functional, organism-based; conditions: Human immunodeficiency virus 1, TZM-bl
[4] = Cytotoxicity against human TZM-bl cells assessed as cell viability after 48 hrs by WST1 assay; assay type: cell-based
Trypanosoma cruzi = experiment: Trypanocidal activity against nifurtimox-sensitive Trypanosoma cruzi Tulahuen CL2 infected in human MRC5 SV2 cells assessed as parasite growth inhibition after […] by beta-galactosidase assay; assay type: functional, organism-based
Leishmania infantum = experiment: Antileishmanial activity against Leishmania infantum MHOM/MA (BE)/67 infected in primary peritoneal mouse macrophages assessed as reduction in parasite burdun; assay type: functional, organism-based
Plasmodium falciparum = experiment: Antiplasmodial activity against chloroquine-resistant Plasmodium falciparum K1 infected in human O positive erythrocyte assessed as reduction in parasitemia after 72 hrs; assay type: functional, organism-based; conditions: K1, 72 h
[5] = Cytotoxicity against human MRC5 SV2 cells assessed as reduction in cell growth after 72 hrs; assay type: cell-based; conditions: MRC5, 72 h
[6] = Solubility of the compound in 10 mM PBS buffer solution at pH7.4 at 3.125 to 200 uM after 2 hrs; assay type: physicochemical; conditions: pH 7.4
[7] = Octanol-phosphate buffer partition coefficient, log D of the compound at pH 7.4 after 2 hrs of shaking after 2 hrs; assay type: physicochemical
[8] = Stability of the compound in PBS buffer assessed as recovery at pH 7.4 measured after 24 hrs by UPLC analysis; assay type: physicochemical; conditions: read-out: Drug recovery
[9] = Metabolic stability in human liver microsomes assessed as compound remaining after 15 mins by UPLC analysis; assay type: ADME; conditions: read-out: Stability
[10] = Metabolic stability in mouse liver microsomes assessed as compound remaining after 15 mins by UPLC analysis; assay type: ADME; conditions: read-out: Stability
[11] = Metabolic stability in human plasma assessed as compound remaining after 1 hr; assay type: ADME, cell-free; conditions: read-out: Stability
[12] = Metabolic stability in mouse plasma assessed as compound remaining after 1 hr; assay type: ADME, cell-free; conditions: read-out: Stability
[13] = tested on: Trypanosoma brucei brucei; experiment: Trypanocidal activity against suramin-sensitive Trypanosoma brucei brucei Squib427 infected in Swiss mouse assessed as mean survival time at 10 mg/kg first dose through orally and next four dosed administered intraperitoneally for 4 days (reference value: 7.2 days); assay type: functional; conditions: route oral
[14] = tested on: Trypanosoma brucei brucei; experiment: Trypanocidal activity against suramin-sensitive Trypanosoma brucei brucei Squib427 infected in Swiss mouse assessed as reduction in parasitemia at 10 mg/kg first dose through orally and next four dosed administered intraperitoneally for 4 days; assay type: functional; conditions: Squib427, 96 h, route oral
[15] = tested on: Trypanosoma brucei brucei; experiment: Trypanocidal activity against suramin-sensitive Trypanosoma brucei brucei Squib427 infected in Swiss mouse assessed as survivors on day 14 post infection at 10 mg/kg first dose through orally and next four dosed administered intraperitoneally for 4 days; assay type: functional, organism-based; parameters: dose 10 mg/kg

## NS(=O)(=O)c1ccc(Oc2ccc(NC(=O)N[C@H]3[C@@H]4COc5c(F)ccc(F)c5[C@@H]43)nc2)cc1
[1]
  IC50: 32.1 µM
[2]
  IC50: 38.5 µM
[3]
  EC50: 0.001 µM
[4]
  CC50 at 48 h: > 100 µM
Trypanosoma cruzi
  IC50: > 64 µM
Leishmania infantum
  IC50: 32.5 µM
Plasmodium falciparum
  IC50: 29.5 µM

## N#Cc1ccc(NC(=O)N[C@@H]2[C@@H]3COc4c(F)ccc(F)c4[C@@H]32)nc1
[1]
  IC50: > 64 µM
[2]
  IC50: > 64 µM
[5]
  IC50: > 64 µM
[3]
  EC50: 0.001 µM
Trypanosoma cruzi
  IC50: > 64 µM
Leishmania infantum
  IC50: > 64 µM
Plasmodium falciparum
  IC50: 64 µM

## CO[C@H]1O[C@@H]2O[C@@]3(C)CC[C@H]4[C@H](C)CC[C@@H]([C@H]1C)[C@@]24OO3
Plasmodium falciparum
  IC50: > 64 µM

## c1ccc(Nc2ccnc(Nc3ccccc3)n2)cc1
[1]
  IC50: 7.27 µM
[2]
  IC50: 2.53 µM
[5]
  IC50: 13.2 µM
[3]
  EC50: > 10 µM
Trypanosoma cruzi
  IC50: 4.45 µM
Leishmania infantum
  IC50: 22.2 µM
Plasmodium falciparum
  IC50: 21.8 µM

## O=C(Cn1ccnc1[N+](=O)[O-])NCc1ccccc1 [BENZNIDAZOLE]
Trypanosoma cruzi
  IC50: 2.56 µM

## CCN(CC)CCCC(C)Nc1ccnc2cc(Cl)ccc12 (stereo unspecified) [CHLOROQUINE]
Plasmodium falciparum
  IC50: > 64 µM

## Cc1cc(C)c(Nc2ccnc(Nc3ccc(C#N)cc3)n2)c(C)c1 [DAPIVIRINE]
[1]
  IC50: > 16 µM
[2]
  IC50: 19.5 µM
[5]
  IC50: > 64 µM
[3]
  EC50: 0.002 µM
[4]
  CC50 at 48 h: 2.47 µM
Trypanosoma cruzi
  IC50: 1.25 µM
Leishmania infantum
  IC50: > 64 µM
Plasmodium falciparum
  IC50: 4.88 µM

## CC(C)Nc1cccnc1N1CCN(C(=O)c2cc3cc(NS(C)(=O)=O)ccc3[nH]2)CC1 [DELAVIRDINE]
[1]
  IC50: > 64 µM
[2]
  IC50: > 64 µM
[5]
  IC50: > 64 µM
[3]
  EC50: 0.055 µM
[4]
  CC50 at 48 h: > 50 µM
Trypanosoma cruzi
  IC50: > 64 µM
Leishmania infantum
  IC50: > 64 µM
Plasmodium falciparum
  IC50: 64 µM

## O=C1Nc2ccc(Cl)cc2[C@@](C#CC2CC2)(C(F)(F)F)O1 [EFAVIRENZ]
[1]
  IC50: 30.2 µM
[2]
  IC50: 19.6 µM
[5]
  IC50: 25.8 µM
[4]
  CC50 at 48 h: > 50 µM
Trypanosoma cruzi
  IC50: 8.56 µM
Leishmania infantum
  IC50: 7.4 µM
Plasmodium falciparum
  IC50: 43.8 µM

## Cc1cc(C#N)cc(C)c1Oc1nc(Nc2ccc(C#N)cc2)nc(N)c1Br [ETRAVIRINE]
[1]
  IC50: > 64 µM
[2]
  IC50: > 64 µM
[5]
  IC50: > 64 µM
[3]
  EC50: 0.001 µM
[4]
  CC50 at 48 h: > 25 µM
Trypanosoma cruzi
  IC50: > 64 µM
Leishmania infantum
  IC50: 41.6 µM
Plasmodium falciparum
  IC50: 64 µM

## CCc1nn(CCO)c(CC)c1Oc1cc(C#N)cc(C#N)c1 [LERSIVIRINE]
[1]
  IC50: > 64 µM
[2]
  IC50: 54.7 µM
[3]
  EC50: 0.003 µM
[4]
  CC50 at 48 h: > 100 µM
Trypanosoma cruzi
  IC50: > 64 µM
Leishmania infantum
  IC50: > 64 µM
Plasmodium falciparum
  IC50: > 64 µM

## Nc1nc(N)nc(Nc2ccc([As]3SCC(CO)S3)cc2)n1 (stereo unspecified) [MELARSOPROL]
[1]
  IC50: 0.03 µM
[2]
  IC50: 0.02 µM
[5]
  IC50: 7.4 µM
[6]
  solubility at 2 h: 25 µM
[7]
  logD at 2 h: 4.51
[8]
  remaining at 24 h: 100%
[9]
  remaining at […]: 84%
[10]
  remaining at […]: 72%
[11]
  remaining at 1 h: 100%
[12]
  remaining at 1 h: 100%

## CCCCCCCCCCCCCCCCOP(=O)([O-])OCC[N+](C)(C)C [MILTEFOSINE]
Leishmania infantum
  IC50: 6.17 µM

## Cc1ccnc2c1NC(=O)c1cccnc1N2C1CC1 [NEVIRAPINE]
[1]
  IC50: > 64 µM
[2]
  IC50: > 64 µM
[5]
  IC50: > 64 µM
[3]
  EC50: 0.144 µM
[4]
  CC50 at 48 h: > 50 µM
Trypanosoma cruzi
  IC50: > 64 µM
Leishmania infantum
  IC50: > 64 µM
Plasmodium falciparum
  IC50: 64 µM

## CC1CS(=O)(=O)CCN1/N=C/c1ccc([N+](=O)[O-])o1 (stereo unspecified) [NIFURTIMOX]
Trypanosoma cruzi
  IC50: 0.7 µM

## Cc1ccc(C(=O)Nc2ccc(S(=O)(=O)O)c3cc(S(=O)(=O)O)cc(S(=O)(=O)O)c23)cc1NC(=O)c1cccc(NC(=O)Nc2cccc(C(=O)Nc3cc(C(=O)Nc4ccc(S(=O)(=O)O)c5cc(S(=O)(=O)O)cc(S(=O)(=O)O)c45)ccc3C)c2)c1 [SURAMIN]
[1]
  IC50: 0.02 µM
[2]
  IC50: 0.02 µM
[5]
  IC50: > 64 µM
[13]
  MST: >21 days
[14]
  inhibition in vivo at 10 mg/kg: 100%
[15]
  Activity: Active

## CC(C)=CCOc1cc(NC(=S)c2ccoc2C)ccc1Cl [UC 781]
[1]
  IC50: > 64 µM
[2]
  IC50: 38.5 µM
[5]
  IC50: > 64 µM
[3]
  EC50: 0.003 µM
[4]
  CC50 at 48 h: > 100 µM
Trypanosoma cruzi
  IC50: > 64 µM
Leishmania infantum
  IC50: > 64 µM
Plasmodium falciparum
  IC50: 27.4 µM

Source: ChEMBL document CHEMBL3352040, “From human immunodeficiency virus non-nucleoside reverse transcriptase inhibitors to potent and selective antitrypanosomal compounds” (Bioorg Med Chem, 2014)
